According to paper PMC9500300, “Development of a novel Bruton’s tyrosine kinase inhibitor that exerts anti-cancer activities potentiates response of chemotherapeutic agents in multiple myeloma stem cell-like cells” (Frontiers in Pharmacology, 2022):
Counter-ions that a name gives are not always drawn.

Target: Bruton's tyrosine kinase (BTK) (Homo sapiens, UniProt Q06187)
Experiment: ADP-Glo in vitro kinase assay with BTK enzyme (Promega)
Assay type: biochemical

Sequence of Bruton's tyrosine kinase (BTK) (Q06187 2-659): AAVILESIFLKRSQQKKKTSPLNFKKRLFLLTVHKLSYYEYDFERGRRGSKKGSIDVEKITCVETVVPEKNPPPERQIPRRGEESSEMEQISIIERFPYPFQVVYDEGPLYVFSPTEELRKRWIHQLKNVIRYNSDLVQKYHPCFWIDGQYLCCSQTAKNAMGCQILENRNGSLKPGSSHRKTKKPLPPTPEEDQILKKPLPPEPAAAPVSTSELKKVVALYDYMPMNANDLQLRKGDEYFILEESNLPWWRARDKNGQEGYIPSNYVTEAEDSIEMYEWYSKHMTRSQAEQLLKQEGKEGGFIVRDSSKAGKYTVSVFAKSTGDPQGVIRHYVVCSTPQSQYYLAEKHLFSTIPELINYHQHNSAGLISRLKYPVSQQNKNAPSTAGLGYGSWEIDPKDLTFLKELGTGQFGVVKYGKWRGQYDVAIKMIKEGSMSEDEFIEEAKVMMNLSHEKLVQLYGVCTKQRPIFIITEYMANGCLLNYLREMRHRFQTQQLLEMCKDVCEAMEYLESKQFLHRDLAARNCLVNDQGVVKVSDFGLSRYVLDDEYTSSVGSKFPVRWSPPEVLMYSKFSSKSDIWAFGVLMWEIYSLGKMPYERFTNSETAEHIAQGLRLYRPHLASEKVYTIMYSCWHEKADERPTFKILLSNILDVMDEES

inhibition at 1 µM: 49.8%
Structure (SMILES): N=C(N)SCc1ccc(CN2C(=O)C(=Cc3ccc(Oc4cccc(Cl)c4Cl)cc3)c3cc([N+](=O)[O-])ccc32)cc1 [compound 6, 4-((3-(4-(2,3-dichlorophenoxy)benzylidene)-5-nitro-2-oxoindolin-1-yl)methyl) benzyl carbamimidothioate hydrobromide]
